B1: IL-10: Porcine interleukin 10 (R&D systems) (protein, UniProt Q29055 19-175, looked up)
Interleukin-10: SIKSENSCIHFPTSLPHMLRELRAAFGPVKSFFQTKDQMGDLLLTGSLLEDFKGYLGCQALSEMIQFYLEDVMPKAESDGEDIKEHVNSLGEKLKTLRLRLRRCHQFLPCENKSKAVEEVKSAFSKLQERGVYKAMGEFDIFINYIEAYMTMKMRKN
B2: IL-6: Porcine interleukin 6 (R&D systems) (protein, UniProt P26893 30-212, looked up)
Interleukin-6: ERLEEDAKGDATSDKMLFTSPDKTEELIKYILGKISAMRKEMCEKYEKCENSKEVLAENNLNLPKMAEKDGCFQSGFNQETCLMRITTGLVEFQIYLDYLQKEYESNKGNVEAVQISTKALIQTLRQKGKNPDKATTPNPTTNAGLLDKLQSQNEWMKNTKIILILRSLEDFLQFSLRAIRIM

Experiments:
[1] = tested on: PCV2 infection of PK-15 cells; test: Number of PCV2-infected PK-15 cells (IPMA) with endosomal-lysosomal acidification inhibitors with or without IFN-gamma; assay type: cell-based, Porcine circovirus 2; details: for effect on PCV2 infection in IFN-gamma treated cells (in words): PK-15 pre-treated with 500 U/ml IFN-gamma 24 hours; for effect on PCV2 infection in IFN-gamma treated cells (in words) / effect on PCV2 infection compared to control (in words): inhibitor 24 hours after inoculation, 36 hpi; for effect on PCV2 infection compared to control (in words): PK-15 without IFN-gamma; for highest concentration exerting maximal effect without affecting cell viability (chosen): two-fold dilution in PK-15 cells, Stoon-1010
Description: Endosomal-lysosomal system acidification was inhibited using lysosomotropic weak bases (ammonium chloride and chloroquine diphosphate) and carboxylic ionophore monensin. All chemical compounds were purchased from Sigma. In a first set of experiments, a two-fold dilution of each inhibitor in PK-15 cells using Stoon-1010 was performed to determine the highest concentration of each inhibitor that exerted the maximal effect without affecting cell viability. Finally, 25 mM ammonium chloride, 125 μM chloroquine diphosphate and 6 μM monensin were chosen. PK-15 cells were cultivated for 24 hours and then inoculated with a dose of PCV2 for 1 hour at 37° C. The viral inoculum was washed-off and cells were further incubated in culture medium with or without inhibitors of endosomal-lysosomal acidification for 24 hours. Then, the culture medium containing endosomal-lysosomal system inhibitors was replaced with fresh culture medium without inhibitors. After the first cycle of PCV2 replication, at 36 hpi, cells were fixed with methanol at −20° C. for 10 minutes. Cells were stored at −20° C. until they were stained using an immunoperoxidase monolayer assay (IPMA) as described by Sanchez et al. (2003, Vet Microbiol 95, 15-25).
PK-15 cells were pre-treated with or without 500 U/ml IFN-gamma for 24 hours before they were inoculated with the same dose of PCV2 for 1 hour at 37° C. The viral inoculum was washed-off and cells were further incubated in culture medium containing inhibitors of endosomal-lysosomal acidification for 24 hours. Then, the culture medium containing endosomal-lysosomal system inhibitors was replaced with fresh culture medium without inhibitors. After the first cycle of PCV2 replication, at 36 hours post-inoculation cells were fixed with methanol at −20° C. for 10 minutes. Cells were stored at −20° C. until they were stained using an immunoperoxidase monolayer assay (IPMA) as described above. The number of infected cells per well in mock-treated cells inoculated with an equal dose of PCV2 as treated cells was used as the referent, and all results are expressed as a percentage of this referent. All experiments were performed three times, and each condition in a single experiment was performed in duplicate.

[2] = tested on: PCV2 strain Stoon-1010 in PK-15 cells; test: Progeny PCV2 production in PK-15 cells with acidification inhibitors and/or IFN-gamma; assay type: cell-based, Porcine circovirus 2
Description: For progeny virus production assays, 2×10^5 cells were seeded in every well of 24-well cell culture plates. Cells were pre-treated with or without 500 U/ml IFN-gamma at 6 hours post seeding. At 24 h post-seeding, cells were washed and inoculated with the prototype PCV2 strain Stoon-1010 at an m.o.i. of 0.3 for 1 hour at 37° C. The viral inoculum was washed-off and cells were further incubated in 1 ml of culture medium with or without 25 mM ammonium chloride, 125 μM chloroquine diphosphate and/or 6 μM monensin for 24 hours. Then, the culture medium with or without endosomal-lysosomal system acidification inhibitors was replaced with fresh culture medium without inhibitors. At 1, 24, 48 and 72 hours post-inoculation the supernatant was collected. Subsequently the culture was washed once with 1 ml PBS. Both the supernatant and the washing fluid were centrifuged for 10 minutes at 15,000×g to pellet cells and debris. The centrifuged supernatant and washing fluids were combined and considered to contain the extracellular virus. Both pellets and cell cultures were freeze-thawed three times and considered to contain the intracellular virus. Intra- and extracellular virus titres were determined by titration on PCV-negative PK-15 cells as described previously. Viral antigens were detected using an IPMA as described above and PCV2 titre was expressed as log10 TCID50 per 10^5 cells.

[3] = tested on: PCV2-infected PK-15 cells; test: Number of PCV2-infected PK-15 cells (IPMA) after treatment with cytokines or natural cytokine sources; assay type: cell-based, Porcine circovirus 2; details: PK-15 cells; cytokine dilution series, before, during or after inoculation; 36 h
Description: PK-15 cells were seeded and maintained in culture medium containing 5%-10% fetal bovine serum (FBS), 0.3 mg/ml glutamine, 100 U/ml penicillin, 0.1 mg/ml streptomycin, 0.1 mg/ml kanamycin dissolved in minimal essential medium (MEM) (Gibco BRL®, Grand Island, USA) or dissolved in RPMI-1640 (GIBCO BRL®, Grand Island, USA) containing 1% nonessential amino acids (100×; GIBCO BRL®, Grand Island, USA) and 1 mM sodium pyruvate (GIBCO BRL®, Grand Island, USA). Cells were seeded at a concentration of 150,000 cells per ml of medium. For the detection of total viral antigen positive cells, the cells were seeded in 96-well microtiter plates (Nunc) (15,000-20,000 cells per well). To detect the expression of specific viral antigens, cells were seeded on sterile cover slips in Leighton tubes (150,000 cells per tube) and finally progeny virus production assays were performed in 24-well plates containing […].
(§1) In order to use cells, more related to the target cells in vivo, the monocytic cell line 3D4/31 was used to confirm the effect of the different cytokines on the number of PCV2-infected cells. The 3D4/31 cell line is a porcine monomyeloid cell lines that was established following transfection of primary porcine alveolar macrophage cultures with plasmid pSV3neo, carrying genes for neomycin resistance and SV40 large T antigen. (Weingartl et al. (2002) J Virol Methods. 10, 203-216). These cells were maintained in a 1:1 mixture of RPMI-1640 (Invitrogen) and DMEM (Invitrogen) supplemented with 10% fetal bovine serum, 0.3 mg/ml glutamine, 100 U/ml penicillin, 0.1 mg/ml streptomycin, 0.1 mg/ml kanamycin and 1% non-essential amino acids 100× (GIBCO BRL®, Grand Island, USA). These experiments were also performed in 96-well plates containing the same number of cells. Furthermore, to monitor the effect of IFN-gamma on the entry of PCV2 virion-like particles was determined, 3D4/31 cells were seeded at 2×10^5 cells/ml of medium onto microscopic slides mounted with an 8 well cell culture silicone chamber (Vivascience AG, Hanover). In all inoculations, the same PCV2-strain (Stoon-1010) was used at a multiplicity of infection of 0.01. The virus was diluted in MEM and inoculated on the cell cultures by incubating cells and virus for 1 hour at 37° C. After 1 hour, the inoculum was removed, the cultures were washed twice with MEM and new culture medium was added.
(§2) The influence of the cytokines on the infection of PCV2 in PK-15 and 3D4/31 cells was determined by adding two-fold-dilution series of the cytokines to the medium of the cells before, during or after the inoculation. IL-1, IL-6, […] and IFN-alpha were used in concentrations ranging from 0.25-250 Units/ml (U/ml), IFN-gamma was used in concentrations ranging from 0.25-1000 U/ml and IL-10 was used in concentrations from 0.13-125 U/ml. Cell cultures were either pre-treated with the cytokines for 24 hours before inoculation, treated during the inoculation or the cytokines were added in the medium after the inoculation. After 36 hours of incubation at 37° C. in an environment supplemented with 5% CO2, the cells were fixed by drying and frozen at −20° C. The plates were stained with an immuno-peroxydase monolayer assay (IPMA) as described by Sanchez et al. (2003, Vet Microbiol 95, 15-25) and the number of PCV2-positive cells was counted by light microscopy. In each plate a control was inoculated with an equal dose of mock-treated PCV2 (treated with MEM without cytokines). The number of infected cells in this well was used as the reference and all results were expressed as a ratio to this reference.
Two-fold dilutions of the BAL-fluids of the PRCV and mock-inoculated pigs were added to the medium of PCV2-inoculated PK-15 cells after inoculation. Concentrations of the added BAL-fluids ranged from 1.25 to 5%. Supernatants of ConA and mock-stimulated PBMC's were also added to the culture medium of PK-15 cells after inoculation in concentrations ranging from […] to 50%. […]

[4] = tested on: PCV2-infected 3D4/31 cells; test: Number of PCV2-infected 3D4/31 cells (IPMA) after cytokine treatment; assay type: cell-based, Porcine circovirus 2; details: 3D4/31 cells; any concentration, before, during or after inoculation
Description: as §1, §2

[5] = tested on: PCV2 (field strain Imp-1121); test: PCV2 replication in inoculated pigs given IFN-gamma or ConA; assay type: in vivo; details: pigs inoculated at 19 days of age; samples 10, 15, 21 days post inoculation
Description: Pigs are inoculated with PCV2 (field strain Imp-1121) at 19 days of age. These inoculated pigs are divided in 3 groups. One group contains control pigs (only PCV2). The second group of pigs receives recombinant IFN-gamma (100,000 U per pig every three days). The third group contains pigs that receive ConA (1.5 mg/kg every three days). At different times post inoculation (10, 15, 21 days) samples are collected and the replication of the virus is assessed.

[6] = IFN-gamma 500 U/ml pre-treatment

| Molecule | effect on PCV2 infection in IFN-gamma treated cells (in words) [1] | effect on PCV2 infection compared to control (in words) [1] | highest concentration exerting maximal effect without affecting cell viability (chosen) [1] [µM] | PCV2 titres at 1 hpi ([2]; IFN-gamma 0 U/ml) [TCID50 per 10^5 cells] | PCV2 titres at 24 hpi ([2]; IFN-gamma 0 U/ml) [TCID50 per 10^5 cells] | PCV2 titres at 48 hpi ([2]; IFN-gamma 0 U/ml) [TCID50 per 10^5 cells] | PCV2 titres at 72 hpi ([2]; IFN-gamma 0 U/ml) [TCID50 per 10^5 cells] | PCV2 titres at 1 hpi [2, 6] [TCID50 per 10^5 cells] | PCV2 titres at 24 hpi [2, 6] [TCID50 per 10^5 cells] | PCV2 titres at 48 hpi [2, 6] [TCID50 per 10^5 cells] | PCV2 titres at 72 hpi [2, 6] [TCID50 per 10^5 cells] | change in the number of PCV2-positive cells (in words) [3] | change in the number of PCV2-positive cells (in words) [4] | replication of PCV2 compared to control pigs (in words) [5] |
| --- | --- | --- | --- | --- | --- | --- | --- | --- | --- | --- | --- | --- | --- | --- |
| Cl.N [Ammonium chloride, ammonium chloride] | enhanced PCV2 infection | enhance PCV2 infection | 25000 | 2.1 | 1.9 | 3.0 | 3.8 | 1.6 | 3.0 | 4.0 | 4.8 | – | – | – |
| CCN(CC)CCCC(C)Nc1ccnc2cc(Cl)ccc12 (stereo not shown) [Chloroquine diphosphate, chloroquine diphosphate] | enhanced PCV2 infection | enhance PCV2 infection | 125 | 1.4 | 1.8 | 3.3 | 4.3 | 1.6 | 2.3 | 4.0 | 4.6 | – | – | – |
| CC[C@@]1([C@@H]2O[C@@H]([C@H]3O[C@@](O)(CO)[C@H](C)C[C@@H]3C)C[C@@H]2C)CC[C@H]([C@]2(C)CC[C@]3(C[C@H](O)[C@@H](C)[C@@H]([C@@H](C)[C@@H](OC)[C@H](C)C(=O)O)O3)O2)O1 [Monensin, monensin] | enhanced PCV2 infection | enhance PCV2 infection | 6 | 1.9 | 2.3 | 3.9 | 3.6 | 2.0 | 2.8 | 4.6 | 4.8 | – | – | – |
| TNF-alpha | – | – | – | – | – | – | – | – | – | – | – | no significant change | did not induce a significant change | – |
| concanavalin A [ConA] | – | – | – | – | – | – | – | – | – | – | – | – | – | increase in the replication of PCV2 |
| B1 | – | – | – | – | – | – | – | – | – | – | – | no significant change | did not induce a significant change | – |
| B2 | – | – | – | – | – | – | – | – | – | – | – | no significant change | did not induce a significant change | – |

— US9119806B2, “Culturing circular ssDNA viruses for the production of vaccines” (priority 2007, dated 2015)
